Measurements reported in ChEMBL document CHEMBL4673347, “Discovery of new thieno[2,3-d]pyrimidine and thiazolo[5,4-d]pyrimidine derivatives as orally active phosphoinositide 3-kinase inhibitors” (Bioorg Med Chem, 2021).

Key:
[1] = system: HGC-27; test: Induction of apoptosis in human HGC-27 cells assessed as viable cells at 500 nM incubated for 24 hrs by annexin V-FITC and propidium iodide based staining based flow cytometry analysis (reference value: 83.7 %); assay type: functional; settings: read-out: Activity
[2] = system: HGC-27; test: Induction of apoptosis in human HGC-27 cells assessed as early apoptotic cells at 500 nM incubated for 24 hrs by annexin V-FITC and propidium iodide based staining based flow cytometry analysis (reference value: 6.22 %); assay type: functional
[3] = system: HGC-27; test: Induction of apoptosis in human HGC-27 cells assessed as late apoptotic cells at 500 nM incubated for 24 hrs by annexin V-FITC and propidium iodide based staining based flow cytometry analysis (reference value: 8.15 %); assay type: functional
[4] = system: HGC-27; test: Induction of apoptosis in human HGC-27 cells assessed as necrotic cells at 500 nM incubated for 24 hrs by annexin V-FITC and propidium iodide based staining based flow cytometry analysis (reference value: 1.95 %); assay type: functional
[5] = target: Phosphatidylinositol 4,5-bisphosphate 3-kinase catalytic subunit alpha isoform (Homo sapiens, UniProt P42336); test: Inhibition of recombinant human full length His-tagged PI3Kalpha expressed in baculovirus expression system using PIP2 as substrate by ADP-Glo reagent based assay
[6] = system: HGC-27; test: Antiproliferative activity against human HGC-27 cells assessed as reduction in cell viability incubated for 72 hrs measured after 4 hrs of MTT addition by MTT assay; assay type: functional, cell-based

Chain of Phosphatidylinositol 4,5-bisphosphate 3-kinase catalytic subunit alpha isoform (P42336 whole entry, canonical isoform): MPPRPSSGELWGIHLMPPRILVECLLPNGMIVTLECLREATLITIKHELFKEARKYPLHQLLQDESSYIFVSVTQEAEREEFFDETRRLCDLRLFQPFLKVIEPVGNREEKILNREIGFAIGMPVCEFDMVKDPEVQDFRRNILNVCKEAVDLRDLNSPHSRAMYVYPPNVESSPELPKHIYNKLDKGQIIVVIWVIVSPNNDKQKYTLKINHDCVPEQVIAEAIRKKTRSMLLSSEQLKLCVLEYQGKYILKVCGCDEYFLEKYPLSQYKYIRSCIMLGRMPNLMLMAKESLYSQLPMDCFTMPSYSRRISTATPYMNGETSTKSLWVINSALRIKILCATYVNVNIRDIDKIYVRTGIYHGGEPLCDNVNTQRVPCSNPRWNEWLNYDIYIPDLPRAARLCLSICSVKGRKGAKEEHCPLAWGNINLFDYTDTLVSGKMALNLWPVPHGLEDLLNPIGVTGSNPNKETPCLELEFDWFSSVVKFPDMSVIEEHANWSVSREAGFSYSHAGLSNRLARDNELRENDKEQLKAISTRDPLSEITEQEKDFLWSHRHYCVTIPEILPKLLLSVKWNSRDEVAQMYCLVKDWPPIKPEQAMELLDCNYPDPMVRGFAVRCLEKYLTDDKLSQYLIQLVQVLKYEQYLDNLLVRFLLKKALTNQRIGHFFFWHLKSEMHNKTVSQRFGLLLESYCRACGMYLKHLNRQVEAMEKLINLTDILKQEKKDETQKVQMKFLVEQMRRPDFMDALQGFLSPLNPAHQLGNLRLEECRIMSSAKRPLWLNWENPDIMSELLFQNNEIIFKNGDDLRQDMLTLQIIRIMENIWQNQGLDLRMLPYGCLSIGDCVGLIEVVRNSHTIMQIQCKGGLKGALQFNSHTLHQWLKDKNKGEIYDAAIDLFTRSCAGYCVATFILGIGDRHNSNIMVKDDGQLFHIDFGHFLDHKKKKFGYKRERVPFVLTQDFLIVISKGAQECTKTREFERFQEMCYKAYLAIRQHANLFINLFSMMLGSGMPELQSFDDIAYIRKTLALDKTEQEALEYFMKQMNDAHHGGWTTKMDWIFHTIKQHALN

IC50 [5] [µM] | Compound | IC50 [6] [µM] | further results
– | Nc1cc(C(F)(F)F)c(-c2cc(N3CCOCC3)nc(N3CCOCC3)n2)cn1 [BUPARLISIB] | – | viability at 0.5 µM [1]: 74.9%; Activity [2]: 15.9%; Activity [3]: 8.93%; Activity [4]: 0.3%
0.0088 | COc1ncc(-c2nc3c(N4CCCCC4)ncnc3s2)cc1NS(=O)(=O)c1ccc(F)cc1F | 0.96 | –
0.0019 | COc1ncc(-c2nc3c(N4CCOC[C@H]4C)ncnc3s2)cc1NS(=O)(=O)c1ccc(F)cc1F | 0.047 | –
0.0051 | COc1ncc(-c2cc3c(-c4ccncc4)ncnc3s2)cc1NS(=O)(=O)c1ccc(F)cc1F | 1.7 | –
0.016 | COc1ncc(-c2cc3c(N4CC(C)OC(C)C4)ncnc3s2)cc1NS(=O)(=O)c1ccc(F)cc1F (racemic) | 0.86 | –
0.014 | COc1ncc(-c2cc3c(N4CC5COCC5C4)ncnc3s2)cc1NS(=O)(=O)c1ccc(F)cc1F (stereo unspecified) | 0.3 | –
0.0035 | COc1ncc(-c2nc3c(N4CCCC4)ncnc3s2)cc1NS(=O)(=O)c1ccc(F)cc1F | 1.2 | –
0.0063 | COc1ncc(-c2nc3c(N4CC5CCCC5C4)ncnc3s2)cc1NS(=O)(=O)c1ccc(F)cc1F (stereo unspecified) | 0.31 | –
0.011 | COc1ncc(-c2cc3c(N4CCOC[C@@H]4C)ncnc3s2)cc1NS(=O)(=O)c1ccc(F)cc1F | 0.67 | –
0.002 | COc1ncc(-c2nc3c(N4CCOC[C@@H]4C)ncnc3s2)cc1NS(=O)(=O)c1ccc(F)cc1F | 0.17 | –
0.014 | COc1ncc(-c2cc3c(N4CCOC[C@H]4C)ncnc3s2)cc1NS(=O)(=O)c1ccc(F)cc1F | 0.47 | –
0.017 | COc1ncc(-c2cc3c(N4CCSCC4)ncnc3s2)cc1NS(=O)(=O)c1ccc(F)cc1F | 0.81 | –
0.047 | COc1ncc(-c2cc3c(N4CC5CCCC5C4)ncnc3s2)cc1NS(=O)(=O)c1ccc(F)cc1F (stereo unspecified) | 1.9 | –
0.016 | COc1ncc(-c2cc3c(N4CCN(C)C(=O)C4)ncnc3s2)cc1NS(=O)(=O)c1ccc(F)cc1F | 0.92 | –
0.014 | COc1ncc(-c2cc3c(N4CCCCC4)ncnc3s2)cc1NS(=O)(=O)c1ccc(F)cc1F | 1.2 | –
0.0072 | COc1ncc(-c2cc3c(N4CC(OC)C4)ncnc3s2)cc1NS(=O)(=O)c1ccc(F)cc1F | 0.83 | –
0.011 | COc1ncc(-c2nc3c(N4CC(C)OC(C)C4)ncnc3s2)cc1NS(=O)(=O)c1ccc(F)cc1F (stereo unspecified) | 0.27 | –
0.0048 | COc1ncc(-c2cc3c(N4CCC(OC)CC4)ncnc3s2)cc1NS(=O)(=O)c1ccc(F)cc1F | 0.28 | –
0.015 | COc1ncc(-c2cc3c(N4C[C@@H](C)O[C@@H](C)C4)ncnc3s2)cc1NS(=O)(=O)c1ccc(F)cc1F | 0.56 | –
0.0013 | COc1ncc(-c2nc3c(N4CCC(OC)CC4)ncnc3s2)cc1NS(=O)(=O)c1ccc(F)cc1F | 0.074 | –
0.109 | COc1ncc(-c2cc3c(N4CCN(C)CC4)ncnc3s2)cc1NS(=O)(=O)c1ccc(F)cc1F | 0.56 | –
0.014 | COc1ncc(-c2cc3c(N4CCCC4)ncnc3s2)cc1NS(=O)(=O)c1ccc(F)cc1F | 2.3 | –
